What all share (format): in vivo
Conditions in all cases: day 7 after sowing, scale 0 to 100

For test [1], the system named is Ivyleaf morningglory. Put plainly: Pot test, herbicidal effect with fludioxonil-treated cotton seeds and soil-applied PPO inhibitor. The protocol: (§1) The evaluation of the herbicidal effect is classified into 0 to 100, in which the numeral “0” indicates no or little difference in the state of germination or growth of test weeds as compared with the untreated weeds at the time of the investigation, and the numeral “100” indicates the complete death of the test plants or the complete suppression of their germination or growth.
In a plastic cup of 100 mm in inside diameter and 40 mm in height, 8.55 mg of a fludioxonil suspension (a suspension containing 20% of fludioxonil, trade name: Savior flowable, manufactured by Syngenta Japan K. K.) and 40 cotton seeds were placed. The plastic cup was shaken by the hand so that the fludioxonil suspension was attached to the cotton seeds. The weight of 40 cottonseeds was 5.7 g, and the amount of fludioxonil by the above treatment was calculated as 30 g per 100 kg of the cotton seeds.
In the same manner, 84.8 mg of the fludioxonil suspension was attached to 40 cotton seeds. The weight of 40 cotton seeds was 5.65 g, and the amount of fludioxonil by the above treatment was calculated as 300 g per 100 kg of the cotton seeds.
(§2) A soil was packed in a plastic pot of 120 mm in inside diameter×80 mm in height. The above cotton seeds were sown in this pot at a rate of two seeds per pot, and the seeds of ivyleaf morningglory were sown at a rate of four seeds per pot. On the day of sowing the cotton seeds and after sowing the cotton seeds, an aqueous diluted solution (113 mg of active ingredient/L or 225 mg of active ingredient/L) of a flumioxazin granular wettable powder (a granular wettable powder containing 51% of flumioxazin, trade name: Valor SX, manufactured by Valent USA), an aqueous diluted solution (226 mg of active ingredient/L or 1130 mg of active ingredient/L) of a sulfentrazone granular wettable powder (a granular wettable powder containing 75% of sulfentrazone, trade name: Cover, manufactured by DuPont), or an aqueous diluted solution (113 mg/L or 226 mg/L) of saflufenacil was uniformly sprayed on the soil surface with a sprayer so as to apply the amount described in Tables 7 to 9. The aqueous diluted solution of saflufenacil was prepared by dissolving a predetermined amount of saflufenacil in acetone containing 2% (w/v) of Tween 20, and diluting this solution with water so as to have an acetone concentration of 10% by volume.
On day 7 after sowing the seeds of cotton and ivyleaf morningglory, the herbicidal effect was investigated.

Test [2] relates to Ivyleaf morningglory. Put plainly: Pot test, herbicidal effect with fludioxonil-treated soybean seeds and soil-applied PPO inhibitor. The protocol: as §1
In a plastic cup of 100 mm in inside diameter and 40 mm in height, 14.25 mg of a fludioxonil suspension (a suspension containing 20% of fludioxonil, trade name: Savior flowable, manufactured by Syngenta Japan K. K.) and 40 soybean seeds were placed. The plastic cup was shaken by the hand so that the fludioxonil suspension was attached to the soybean seeds. The weight of 40 soybean seeds was 9.55 g, and the amount of fludioxonil by the above treatment was calculated as 30 g per 100 kg of the soybean seeds.
In the same manner, 151.4 mg of the fludioxonil suspension was attached to 40 soybean seeds. The weight of 40 soybean seeds was 10.1 g, and the amount of fludioxonil by the above treatment was calculated as 300 g per 100 kg of the soybean seeds.
as §2, with “above treated soybean” for “above cotton”, “the soybean” for “the cotton”, “Tables 1” for “Tables 7”, “to 3.” for “to 9.”
On day 7 after sowing the seeds of soybean and ivyleaf morningglory, the herbicidal effect was investigated.

The test system of test [3] is Ivyleaf morningglory. In words: Pot test, herbicidal effect with fludioxonil-treated corn seeds and soil-applied PPO inhibitor. The method, then:
as §1
In a plastic cup of 100 mm in inside diameter and 40 mm in height, 19.8 mg of a fludioxonil suspension (a suspension containing 20% of fludioxonil, trade name: Savior flowable, manufactured by Syngenta Japan K. K.) and 40 corn seeds were placed. The plastic cup was shaken by the hand so that the fludioxonil suspension was attached to the corn seeds. The weight of 40 corn seeds was 13.2 g, and the amount of fludioxonil by the above treatment was calculated as 30 g per 100 kg of the corn seeds.
In the same manner, 193.5 mg of the fludioxonil suspension was attached to 40 corn seeds. The weight of 40 corn seeds was 12.9 g, and the amount of fludioxonil by the above treatment was calculated as 300 g per 100 kg of the corn seeds.
as §2, with “above treated corn” for “above cotton”, “the corn” for “the cotton”, “Tables 4” for “Tables 7”, “to 6.” for “to 9.”
On day 7 after sowing the seeds of corn and ivyleaf morningglory, the herbicidal effect was investigated.

[4] abbreviates: fludioxonil None, PPO inhibitor 100 g/ha soil surface.
The mark [5] stands for this setting: fludioxonil None, PPO inhibitor 50 g/ha soil surface.
The mark [6] stands for this setting: fludioxonil None, PPO inhibitor 500 g/ha soil surface.
Setting [7] is: fludioxonil 30 g/100 kg of seeds, PPO inhibitor None.
The mark [8] stands for this setting: fludioxonil 300 g/100 kg of seeds, PPO inhibitor None.

`C#CCN1C(=O)COc2cc(F)c(N3C(=O)C4=C(CCCC4)C3=O)cc21` [flumioxazin]: the “Herbicidal effect Ivyleaf morningglory” value is recorded as 30 in the test with Ivyleaf morningglory [1] (setting [4]), 20 in the test with Ivyleaf morningglory [2] (setting [4]), 20 with Ivyleaf morningglory [3] (setting [5]) and 50 with Ivyleaf morningglory [3] (setting [4]).

Turning to `Cc1nn(-c2cc(NS(C)(=O)=O)c(Cl)cc2Cl)c(=O)n1C(F)F` [sulfentrazone], the “Herbicidal effect Ivyleaf morningglory” value in the test with Ivyleaf morningglory [1] (setting [6]) is listed as 30; in the test with Ivyleaf morningglory [2] (setting [4]), 20; in the test on Ivyleaf morningglory [2] (setting [6]) it was 60; in the test with Ivyleaf morningglory [3] (setting [4]), 40.

On to `N#Cc1c[nH]cc1-c1cccc2c1OC(F)(F)O2` [fludioxonil], for which the “Herbicidal effect Ivyleaf morningglory” value in the test on Ivyleaf morningglory [1] (setting [7]), in the test with Ivyleaf morningglory [1] (setting [8]), in the test with Ivyleaf morningglory [2] (setting [7]), with Ivyleaf morningglory [2] (setting [8]), in the test with Ivyleaf morningglory [3] (setting [7]) and with Ivyleaf morningglory [3] (setting [8]) was 0 throughout.

As to `CC(C)N(C)S(=O)(=O)NC(=O)c1cc(-n2c(=O)cc(C(F)(F)F)n(C)c2=O)c(F)cc1Cl` [saflufenacil], the “Herbicidal effect Ivyleaf morningglory” value in the test with Ivyleaf morningglory [1] (setting [5]) stood at 30; in the test on Ivyleaf morningglory [1] (setting [4]), 40; with Ivyleaf morningglory [2] (setting [4]) it was 40; in the test on Ivyleaf morningglory [3] (setting [4]) it was 30.
